{"source": "patent US20070148225A1", "about": "(ALCON, INC., priority 2005, published 2007)", "system": "FGFR", "assay": "Kinase inhibition, cell-free enzymatic assay", "assay_type": "biochemical", "conditions": "1 mM ATP"}
{"smiles": "Cc1ccc(F)c(NC(=O)Nc2ccc(-c3cccc4[nH]nc(N)c34)cc2)c1", "note": "[RTKi, N-[4-(3-amino-1H-indazol-4-yl)phenyl]-N′-(2-fluoro-5-methylphenyl) urea]", "values": [{"measurement": "IC50", "result": "> 12.5", "unit": "µM"}]}
